{"source": "PubChem BioAssay AID602443", "about": "(National Center for Advancing Translational Sciences (NCATS), 2012)", "test_system": "aqueous kinetic solubility", "test": "High Content Assay for Compounds that inhibit the Assembly of the Perinucleolar Compartment: Aqueous Kinetic Solubility", "source_text": "The perinucleolar compartment (PNC) is a non-membrane-bound nuclear subdomain that is associated with but structurally distinct from the nucleolus. The PNC is a heritable trait, in which the number of PNCs per cell in daughter cells often mimics that of their mother cells. The PNC is heterogeneous in shape, is stable through interphase, disassembles during mitosis, and reassembles in early G1. The PNC is concentrated with newly synthesized RNA polymerase III (pol III) RNAs (MRP RNA, RNAse P H1 RNA, hY RNAs[hY1, 2, 5], Alu RNA, and SRP [7SL] RNA) and RNA binding proteins (nucleolin, PTB, CUG-BP, KSRP, Raver1, Raver2, and Rod).\nExtensive in vitro studies have shown that the PNC is unique to tumor cells and preferentially forms in tumor cells derived from solid tissues. Examination of cancer cell lines from various origins and malignant capacities has shown that PNC prevalence correlates with the malignancy of tumors and has the potential to be developed as a pan-cancer prognostic marker.\nThis bioassay provides profiling data on aqueous kinetic solubility (PBS @ pH 7.4) of some of the lead compounds developed for this project.\nNIH Chemical Genomics Center [NCGC]\nNIH Molecular Libraries Probe Centers Network [MLPCN] […]\n5. Concentration of the supernatant was determined by LC-UV or LC-MS/MS", "data": [{"compound": "N=c1c2c(-c3ccccc3)c(-c3ccccc3)n(Cc3ccccc3)c2ncn1C1CCC(O)CC1", "note": "(stereo unspecified)", "values": [{"measurement": "solubility", "value": 150, "unit": "µM"}]}]}
